Assay results as given in US7166617B2, “Cyclic amide derivatives” (Mitsubishi Pharma Corporation, priority 2000, dated 2007).
Structures can show the parent of a compound that is named as a salt.

Biological target: T1, sigma 2 receptor (Rattus norvegicus, UniProt Q5U3Y7)
T1 construct: A crude P2 membrane fraction was prepared from livers of male rats (Sprague-Dawley rats); from tissue; host or cells: rat liver (male Sprague-Dawley), crude P2 membrane fraction
T1 sequence (Q5U3Y7 1-176): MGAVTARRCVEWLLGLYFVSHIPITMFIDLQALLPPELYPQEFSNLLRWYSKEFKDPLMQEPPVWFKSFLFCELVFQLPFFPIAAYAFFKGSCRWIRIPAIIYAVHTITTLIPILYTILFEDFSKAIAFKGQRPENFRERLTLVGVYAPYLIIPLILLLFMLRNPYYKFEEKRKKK
Assay: Sigma 2-selective receptor binding inhibition test ([3H]-DTG, rat liver P2 membrane fraction)
Settings: [3H]-DTG 1 nM, 500 nM pentazocine; for inhibition at 0.01 µM: test compound 10 nM, rat liver P2 fraction, read-out: Inhibitory rate against sigma 2 (%, 10 nM); for Ki: P2 fraction of livers of male Sprague-Dawley rats, 25° C., 2 hours
Protocol: Sigma Binding Site-Binding Inhibition Test
A crude P2 membrane fraction was prepared from livers of male rats (Sprague-Dawley rats) according to a method described in the literature (X. He, et al., J. Med. Chem., 36, pp. 566–571, 1993). In the presence of 500 nM pentazocine and a control compound at various concentrations (haloperidol, 10^−10 to 10^−6 M) or a test ligand at various concentrations (10^−10 to 10^−5 M) together with a radioactive ligand, the P2 fraction (0.4 ml) was incubated in 50 mM Tris-HCl (pH 7.4, final volume: 0.5 ml) at 25° C. for 2 hours. The reaction mixture was rapidly filtered on a Brandel cell harvester using Whatman GF/B filter paper, which was immersed beforehand in 0.5% polyethyleneimine for 1 hour, to stop the reaction. The filter paper was washed 4 times with the ice cooled incubation buffer. The non-specific results were evaluated by using 1 μM haloperidol, and the scintillation analysis and the curve analysis were performed as described above.

SMILES: O=C1c2ccccc2CN1CC1CCN(CCc2ccccc2C(F)(F)F)CC1 [Example 96, 2-[[1-[2-(2-Trifluoromethylphenyl)ethyl]piperidin-4-yl]methyl]-isoindolin-1-one fumarate]
- inhibition at 0.01 µM: 66%

SMILES: O=C(CN1CCC(CN2Cc3cc(Br)ccc3C2=O)CC1)c1ccc(F)cc1 [Example 3, 5-Bromo-2-[[1-[2-(4-fluorophenyl)-2-oxoethyl]piperidin-4-yl]methyl]isoindolin-1-one hydrochloride]
- Ki: 7 nM

SMILES: O=C(CN1CCC(CN2Cc3cc(Cl)ccc3C2=O)CC1)c1ccc(F)cc1 [Example 8, 5-Chloro-2-[[1-[2-(4-fluorophenyl)-2-oxoethyl]piperidin-4-yl]methyl]isoindolin-1-one hydrochloride]
- Ki: 3.1 nM

SMILES: O=C(CN1CCC(CN2Cc3ccsc3C2=O)CC1)c1ccc(F)cc1 [Example 22, 5-[[1-[2-(4-Fluorophenyl)-2-oxoethyl]piperidin-4-yl]methyl]-4,5-dihydro-6H-thieno[2,3-c]pyrrol-6-one hydrochloride]
- Ki: 22 nM

SMILES: O=C1c2ccccc2CN1CC1CCN(CCOc2ccccc2F)CC1 [Example 117, 2-[[1-[2-(2-Fluorophenoxy)ethyl]piperidin-4-yl]methyl]isoindolin-1-one fumarate]
- inhibition at 0.01 µM: 52%

SMILES: COc1ccccc1C(=O)CN1CCC(CN2Cc3ccccc3C2=O)CC1 [Example 72, 2-[[1-[2-(2-Methoxyphenyl)-2-oxoethyl]piperidin-4-yl]methyl]isoindolin-1-one fumarate]
- inhibition at 0.01 µM: 55%

SMILES: O=C(CN1CCC(CN2Cc3ccc(F)cc3C2=O)CC1)c1ccc(F)cc1 [Example 7, 6-Fluoro-2-[[1-[2-(4-fluorophenyl)-2-oxoethyl]piperidin-4-yl]methyl]isoindolin-1-one hydrochloride]
- Ki: 16 nM

SMILES: COc1ccccc1CCN1CCC(CN2Cc3cc(Br)ccc3C2=O)CC1 [Example 167, 2-[1-[2-(2-Methoxyphenyl)ethyl]piperidin-4-ylmethyl]-5-bromoisoindolin-1-one hydrochloride]
- inhibition at 0.01 µM: 62%

SMILES: COc1ccc2c(c1)CN(CC1CCN(CC(=O)c3ccc(F)cc3)CC1)C2=O [Example 9, 5-Methyloxy-2-[[1-[2-(4-fluorophenyl)-2-oxoethyl]piperidin-4-yl]methyl]isoindolin-1-one hydrochloride]
- Ki: 4.9 nM

SMILES: O=C1c2ccccc2CN1CC1CCN(CCOc2ccccc2)CC1 [Example 114, 2-[[1-(2-Phenoxyethyl)piperidin-4-yl]methyl]isoindolin-1-one fumarate]
- inhibition at 0.01 µM: 51%

SMILES: O=C(CN1CCC(CN2Cc3c(F)cccc3C2=O)CC1)c1ccc(F)cc1 [Example 6, 4-Fluoro-2-[[1-[2-(4-fluorophenyl)-2-oxoethyl]piperidin-4-yl]methyl]isoindolin-1-one hydrochloride]
- Ki: 8.7 nM

SMILES: O=C1c2ccccc2CN1CC1CCN(CCSc2ccccc2F)CC1 [Example 112, 2-[[1-[2-(2-Fluorophenylthio)ethyl]piperidin-4-yl]methyl]isoindolin-1-one fumarate]
- inhibition at 0.01 µM: 60%

SMILES: O=C(CN1CCC(CN2Cc3ccoc3C2=O)CC1)c1ccc(F)cc1 [Example 158, 5-[[1-[2-(4-Fluorophenyl)-2-oxoethyl]piperidin-4-yl]methyl]-4,5-dihydro-6H-furo[2,3-c]pyrrol-6-one fumarate]
- inhibition at 0.01 µM: 57%

SMILES: COc1ccccc1CCN1CCC(CN2Cc3cc(C#N)ccc3C2=O)CC1 [Example 170, 5-Cyano-2-[1-[2-(2-methoxyphenyl)ethyl]piperidin-4-ylmethyl]isoindolin-1-one fumarate]
- inhibition at 0.01 µM: 52%

SMILES: O=C(CCN1CCC(CN2Cc3ccccc3C2=O)CC1)c1ccccc1 [Example 30, 2-[[1-[3-Phenyl-3-oxopropyl]piperidin-4-yl]methyl]isoindolin-1-one hydrochloride]
- Ki: 22 nM

SMILES: O=C1c2ccc(Br)cc2CN1CC1CCN(CC(O)c2ccc(F)cc2)CC1 (racemic) [Example 17, (R,S)-5-Bromo-2-[[1-[2-(4-fluorophenyl)-2-hydroxyethyl]piperidin-4-yl]methyl]isoindolin-1-one hydrochloride]
- Ki: 24 nM
